Measurements: US4001218A, “Penicillins” (Bayer Aktiengesellschaft, priority 1972, dated 1977)

How the values were obtained:
[1] = tested on: Psdm. aerug. Walter; assay: MIC, test tube series dilution test, Psdm. aerug. Walter; format: cell-based, Pseudomonas aeruginosa; conditions: Psdm. aerug. Walter; 24 hours, 37°C
[2] = tested on: Klebsiella K 10; assay: MIC, test tube series dilution test, Klebsiella K 10; format: cell-based; conditions: 24 hours, 37°C
[3] = tested on: Psdm. aerug. F 41; assay: MIC, test tube series dilution test, Psdm. aerug. F 41; format: cell-based, Pseudomonas aeruginosa; conditions: Psdm. aerug. F 41; 24 hours, 37°C
[4] = tested on: E. coli 183/58; assay: MIC, test tube series dilution test, E. coli 183/58; format: cell-based; conditions: 24 hours, 37°C
[5] = tested on: E. coli 14; format: cell-based; conditions: E. coli 14; 24 hours, 37°C
[6] = tested on: E. coli C 165; assay: MIC, test tube series dilution test, E. coli C 165; format: cell-based; conditions: 24 hours, 37°C
[7] = tested on: Klebsiella 63; assay: MIC, test tube series dilution test, Klebsiella 63; format: cell-based; conditions: Klebsiella 63; 24 hours, 37°C
[8] = tested on: Enterococcus 9790; assay: MIC, test tube series dilution test, Enterococcus 9790; format: cell-based; conditions: 24 hours, 37°C
[9] = tested on: Proteus vulg. 1017; format: cell-based, Proteus vulgaris; conditions: Proteus 1017; 24 hours, 37°C
[10] = tested on: Staph. aureus 133; format: cell-based, Staphylococcus aureus; conditions: Staph. aureus 133; 24 hours, 37°C
[11] = tested on: Klebsiella 63; assay: animal experiment, Klebsiella 63 infection; conditions: s.c. 2 × 3000 Units per animal
[12] = tested on: Staph. aureus 1756; assay: MIC, test tube series dilution test, Staph. aureus 1756; format: cell-based, Staphylococcus aureus; conditions: Staph. aureus 1756; 24 hours, 37°C
[13] = tested on: E. coli A 261; assay: MIC, test tube series dilution test, E. coli A 261; format: cell-based; conditions: 24 hours, 37°C
[14] = tested on: Klebsiella 62; assay: animal experiment, Klebsiella 62 infection; conditions: 1st day after infection; s.c. 2 × 3000 Units per animal; experiment with Ex.1
[15] = tested on: Psdm. aerug. F 41; assay: animal experiment, Psdm. aerug. F 41 infection; conditions: s.c. 4 × 3000 Units per animal
[16] = tested on: Proteus morg. 932; assay: MIC, test tube series dilution test, Proteus morg. 932; format: cell-based; conditions: 24 hours, 37°C
[17] = 1st day after infection, experiment with Ex.41
[18] = 1st day after infection, experiment with Ex.22
[19] = 1st day after infection, experiment with Ex.29
[20] = 2nd day after infection, experiment with Ex.22
[21] = 2nd day after infection, experiment with Ex.29
[22] = 3rd day after infection, experiment with Ex.29
[23] = 5th day after infection, experiment with Ex.29
[24] = 1st day after infection, experiment with Ex.7

SMILES	MIC [1]	MIC [2]	MIC [3]	MIC [4]	MIC [5]	MIC [6]	MIC [7]	MIC [8]	MIC [9]	MIC [10]	MIC [12]	MIC [13]	MIC [16]	other results
CC1(C)S[C@@H]2[C@H](NC(=O)[C@H](NC(=O)c3ccc(NC=O)cc3)c3ccccc3)C(=O)N2[C@H]1C(=O)O [Example 41, Sodium D(-)-α -(4-formylamino-benzoylamino)-benzylpenicillin]	64 U/ml	128 U/ml	32 U/ml	64 U/ml	8 U/ml	32 U/ml	128 U/ml	8 U/ml	64 U/ml	< 1 U/ml	32 U/ml	> 256 U/ml	–	Surviving animals [11, 17]: 80%; Surviving animals ([11]; 2nd day after infection, experiment with Ex.41): 50%; Surviving animals ([11]; 3rd day after infection, experiment with Ex.41): 50%; Surviving animals ([11]; 5th day after infection, experiment with Ex.41): 50%
CC1(C)S[C@@H]2[C@H](NC(=O)C(C(=O)O)c3ccccc3)C(=O)N2[C@H]1C(=O)O (stereo partly shown) [Carbenicillin, reference compound]	–	–	–	–	–	–	–	–	–	–	–	–	–	Surviving animals [14]: 0%; Surviving animals [15, 18]: 50%; Surviving animals [15, 19]: 80%; Surviving animals [15, 20]: 0%; Surviving animals [15, 21]: 30%; Surviving animals [15, 22]: 30%; Surviving animals [15, 23]: 20%; Surviving animals [11, 17]: 0%; Surviving animals [11, 24]: 0%
CC1(C)S[C@@H]2[C@H](NC(=O)[C@H](NC(=O)c3ccc(NC(=O)C4CCCC4)cc3)c3ccccc3)C(=O)N2[C@H]1C(=O)O [Example 7, sodium D(-)-α-(4-cyclopentanecarbonylamino-benzoylamino)-benzylpenicillin]	32 U/ml	32 U/ml	32 U/ml	8 U/ml	< 1 U/ml	8 U/ml	32 U/ml	8 U/ml	32 U/ml	< 1 U/ml	64 U/ml	> 256 U/ml	256 U/ml	Surviving animals [11, 24]: 100%; Surviving animals ([11]; 2nd day after infection, experiment with Ex.7): 100%; Surviving animals ([11]; 3rd day after infection, experiment with Ex.7): 20%
CC1(C)S[C@@H]2[C@H](NC(=O)[C@H](NC(=O)c3ccc(NC(=O)CCN=[N+]=[N-])cc3)c3ccccc3)C(=O)N2[C@H]1C(=O)O [Example 38]	32 U/ml	128 U/ml	32 U/ml	16 U/ml	4 U/ml	16 U/ml	64 U/ml	~ 16 U/ml	32 U/ml	< 1 U/ml	32 U/ml	> 256 U/ml	~ 256 U/ml	–
COc1cc(C(=O)Nc2ccc(C(=O)N[C@@H](C(=O)N[C@@H]3C(=O)N4[C@@H]3SC(C)(C)[C@@H]4C(=O)O)c3ccccc3)cc2)cc(OC)c1OC [Example 22, Sodium D(-)-α-(4-[3,4,5-trimethoxybenzoylaminobenzoylamino])-benzylpenicillin]	–	–	–	–	–	–	–	–	~ 16 U/ml	< 1 U/ml	–	> 256 U/ml	–	Surviving animals [15, 18]: 80%; Surviving animals [15, 20]: 80%; Surviving animals ([15]; 3rd day after infection, experiment with Ex.22): 80%
CC1(C)S[C@@H]2[C@H](NC(=O)[C@H](NC(=O)c3ccc(NC(=O)c4ccc([N+](=O)[O-])cc4)cc3)c3ccccc3)C(=O)N2[C@H]1C(=O)O [Example 28, sodium D(-)-α-[4-(4-nitrobenzoylamino)-benzoylamino]-benzylpenicillin]	16 U/ml	16 U/ml	16 U/ml	4 U/ml	< 1 U/ml	4 U/ml	16 U/ml	4 U/ml	16 U/ml	< 1 U/ml	~ 32 U/ml	> 256 U/ml	128 U/ml	–
CC1(C)S[C@@H]2[C@H](NC(=O)[C@H](NC(=O)c3ccc(NC(=O)c4ccc(N)cc4)cc3)c3ccccc3)C(=O)N2[C@H]1C(=O)O [Example 29, sodium D(-)-α-[4-(4-aminobenzoylamino)-benzoylamino] -benzylpenicillin]	32 U/ml	128 U/ml	~ 32 U/ml	16 U/ml	< 1 U/ml	4 U/ml	64 U/ml	4 U/ml	256 U/ml	< 1 U/ml	32 U/ml	> 256 U/ml	> 256 U/ml	Surviving animals [15, 19]: 100%; Surviving animals [15, 21]: 80%; Surviving animals [15, 22]: 70%; Surviving animals [15, 23]: 70%
CC1(C)S[C@@H]2[C@H](NC(=O)[C@H](NC(=O)c3ccc(NC(=O)C4CCC4)cc3)c3ccccc3)C(=O)N2[C@H]1C(=O)O [Example 5, sodium D(-)-α-(4-cyclobutanecarbonylaminobenzoylamino)-benzylpenicillin]	64 U/ml	128 U/ml	64 U/ml	32 U/ml	8 U/ml	16 U/ml	64 U/ml	16 U/ml	32 U/ml	< 1 U/ml	32 U/ml	> 256 U/ml	256 U/ml	–
CC1(C)S[C@@H]2[C@H](NC(=O)[C@H](NC(=O)c3ccc(NC(=O)c4ccccc4)cc3)c3ccccc3)C(=O)N2[C@H]1C(=O)O [Example 25]	32 U/ml	64 U/ml	16 U/ml	8 U/ml	8 U/ml	16 U/ml	32 U/ml	8 U/ml	128 U/ml	< 1 U/ml	64 U/ml	> 256 U/ml	16 U/ml	–
CC1(C)S[C@@H]2[C@H](NC(=O)[C@H](NC(=O)c3ccc(NC(=O)Nc4ccccc4)cc3)c3ccccc3)C(=O)N2[C@H]1C(=O)O [Example 45]	16 U/ml	32 U/ml	8 U/ml	4 U/ml	< 1 U/ml	8 U/ml	16 U/ml	< 1 U/ml	16 U/ml	< 1 U/ml	16 U/ml	> 256 U/ml	128 U/ml	–
COc1ccc(C(=O)Nc2ccc(C(=O)N[C@@H](C(=O)N[C@@H]3C(=O)N4[C@@H]3SC(C)(C)[C@@H]4C(=O)O)c3ccccc3)cc2)cc1 [Example 16]	16 U/ml	32 U/ml	16 U/ml	8 U/ml	~ 1 U/ml	8 U/ml	16 U/ml	8 U/ml	64 U/ml	< 1 U/ml	64 U/ml	> 256 U/ml	256 U/ml	–
